From patent US4339576A, “Anti-asthmatic, anti-allergic, anti-cholinergic, bronchodilator and anti-inflammatory 1-[(benzoylphenyl)-lower-alkyl]piperidines and analogs thereof” (Sterling Drug Inc., priority 1981, dated 1982)
Where a name gives a salt, the structure may show the parent alone. Read-outs that look alike come from different tables or passages of the source.

Columns and labels:
[1] = test system: acetylcholine-induced abdominal constriction; experiment: Acetylcholine-induced abdominal constriction test (Ach); assay type: in vivo, mice; settings: Mus musculus
[2] = test system: adjuvant-induced arthritis; experiment: Inhibition of adjuvant-induced arthritis (A.A.); assay type: in vivo; settings: Rattus norvegicus, oral, rats, read-out: percent inhibition, A.A.; for inhibition in vivo at 80 µmol/kg: .08 millimoles/kg; for inhibition in vivo at 40 µmol/kg: .04 millimoles/kg; for inhibition in vivo at 324 µmol/kg: .324 millimoles/kg
[3] = test system: carrageenin-induced foot edema; experiment: Inhibition of carrageenin-induced foot edema (C.E.); assay type: in vivo, rats; settings: Rattus norvegicus, read-out: percent inhibition, C.E.
[4] = test system: passive cutaneous anaphylaxis; experiment: Passive cutaneous anaphylaxis test (PCA); assay type: in vivo; parameters: key: Actv.: active; Weak: weakly active; Inac.: inactive; settings: rats
[5] = test system: bradykinin; experiment: Anti-bradykinin test (BDK); assay type: in vivo; settings: po
[6] = Toxicity observations in the carrageenin edema test; assay type: in vivo; settings: C.E. test, .324 millimoles/kg, oral, rats; for dead: animals dead
Method: Anti-inflammatory activity was determined using (1) the inhibition of carrageenin-induced foot edema test described by Winter et al., Proc. Soc. […] Therap. […] J. Vet.
All data were obtained on oral administration in rats.

[7] = test system: guinea pig tracheal contractions by barium; experiment: Relaxation of guinea pig tracheal contractions by barium; settings: guinea pig trachea
[8] = test system: guinea pig tracheal contractions by carbachol; experiment: Relaxation of guinea pig tracheal contractions by carbachol; settings: guinea pig trachea, read-out: EC50 (effective concentration to produce 50% relaxation), Carb
[9] = test system: histamine induced bronchoconstriction; experiment: Histamine induced bronchoconstriction test in anesthetized dogs; assay type: in vivo; settings: intraduodenally; for ED40: Canis lupus familiaris, intraduodenal, read-out: AED40 (Approximate Effective Dose resulting in 40% inhibition of bronchoconstriction)
[10] = test system: human basophils; experiment: In vitro histamine release from human basophils test; assay type: cell-based; settings: for EC50: read-out: AEC50 (Approximate Effective Concentration resulting in 50% inhibition of allergic release of histamine)

## CC(CN1CCC(NC(=O)c2ccccc2)CC1)c1ccc(C(=O)c2ccccc2)cc1 (stereo not drawn) [Example 6C, 1-[2-(4-Benzoylphenyl)propyl]-4-benzoylaminopiperidine]
[1]; po
  ED50: 23 mg/kg
[2]
  inhibition in vivo at 80 µmol/kg: 51%
[3]; .08 millimoles/kg, oral, rats
  inhibition in vivo at 80 µmol/kg: 50%
[3]; .324 millimoles/kg, oral, rats
  inhibition in vivo at 324 µmol/kg: 57%

## CC(C(=O)N1CCCC(CN2CCOCC2)C1)c1cccc(C(=O)c2ccccc2)c1.Cl (stereo not drawn) [Example 1D, 1-[α-(3-Benzoylphenyl)propionyl]-3-(4-morpholinylmethyl)piperidine hydrochloride]
[4]
  PCA activity (qualitative statement): Actv.
[2]
  inhibition in vivo at 80 µmol/kg: 37%
[3]; .08 millimoles/kg, oral, rats
  inhibition in vivo at 80 µmol/kg: 0%
[3]; .324 millimoles/kg, oral, rats
  inhibition in vivo at 324 µmol/kg: 65%

## CC(=O)NC1CCN(CC(C)c2cccc(C(=O)c3ccccc3)c2)CC1.Cl (stereo not drawn) [Example 3A, 1-[2-(3-benzoylphenyl)propyl]-4-acetylaminopiperidine hydrochloride]
[1]; po
  ED50: 3.6 mg/kg
[2]
  inhibition in vivo at 80 µmol/kg: 75%
[3]; .08 millimoles/kg, oral, rats
  inhibition in vivo at 80 µmol/kg: 29%
[3]; .324 millimoles/kg, oral, rats
  inhibition in vivo at 324 µmol/kg: 58%
[5]
  ED50: 24 mg/kg
[6]
  dead: 2/8

## CC(C(=O)N1CCCCC1CN1CCCCC1)c1cccc(C(=O)c2ccccc2)c1 (stereo not drawn) [Example 1E, 1-[α-(3-Benzoylphenyl)propionyl]-2-(1-piperidinylmethyl)piperidine]
[3]; po
  inhibition in vivo at 80 µmol/kg: 11%
  inhibition in vivo at 324 µmol/kg: 67%

## CC(=O)N(C)C1CCN(CC(C)c2ccc(C(=O)c3ccccc3)cc2)CC1.Cl (stereo not drawn) [Example 3G, 1-[2-(4-Benzoylphenyl)propyl]-4-(N-acetyl-N-methylamino)piperidine hydrochloride]
[7]
  Ba (active or inactive): Inact.
[8]
  EC50: 0.34 µM

## CC(C(=O)N1CCC(CN2CCCCC2)CC1)c1cccc(C(=O)c2ccccc2)c1 (stereo not drawn) [Example 1A, 1-[α-(3-benzoylphenyl)propionyl]-4-(1-piperidinylmethyl)piperidine]
[3]; .08 millimoles/kg, oral, rats
  inhibition in vivo at 80 µmol/kg: 14%
[6]
  Toxic (result in words): Toxic
  dead: 6/8

## CC(CN1CCC(NC(=O)C2CC2)CC1)c1ccc(C(=O)c2ccccc2)cc1 (stereo not drawn) [Example 6A, 1-[2-(4-benzoylphenyl)propyl]-4-cyclopropanecarbonylaminopiperidine]
[1]; po
  ED50: 16 mg/kg
[4]
  PCA activity (qualitative statement): Weak
[9]
  ED40: 7.3 mg/kg
[10]
  AEC50 (Approximate Effective Concentration resulting in 50% inhibition of allergic release of histamine): Inac.
[3]; .08 millimoles/kg, oral, rats
  inhibition in vivo at 80 µmol/kg: 72%
[3]; .324 millimoles/kg, oral, rats
  inhibition in vivo at 324 µmol/kg: 77%

## CC(CN1CCC(N)CC1)c1ccc(C(=O)c2ccccc2)cc1.Cl.Cl (stereo not drawn) [Example 5A, 1-[2-(4-benzoylphenyl)propyl]-4-aminopiperidine-dihydrochloride]
[1]; po
  ED50: 42 mg/kg
[9]
  AED40 (Approximate Effective Dose resulting in 40% inhibition of bronchoconstriction): Inac.

## CC(=O)NC1CCN(CC(C)c2ccc(C(O)c3ccccc3)cc2)CC1 (stereo not drawn) [Example 7, 1-[2-(α-hydroxy-4-benzylphenyl)propyl]-4-acetylaminopiperidine]
[7]
  Ba (active or inactive): Slightly Active
[8]
  EC50: 2.9 µM

## CC(CN1CCC(NC(=O)C2CCCCC2)CC1)c1ccc(C(=O)c2ccccc2)cc1 (stereo not drawn) [Example 6I, 1-[2-(4-Benzoylphenyl)propyl]-4-cyclohexanecarbonylaminopiperidine]
[7]
  Ba (active or inactive): Active
[8]
  EC50: 2.6 µM

## CC(c1cccc(C(=O)c2ccccc2)c1)N1CCC(CN2CCOCC2)CC1 (stereo not drawn) [Example 4A, 1-[1-(3-benzoylphenyl)ethyl]-4-(4-morpholinylmethyl)piperidine]
[4]
  PCA activity (qualitative statement): Actv.
[9]
  ED40: > 30 mg/kg
[3]; .08 millimoles/kg, oral, rats
  inhibition in vivo at 80 µmol/kg: 0%
[3]; .324 millimoles/kg, oral, rats
  inhibition in vivo at 324 µmol/kg: 38%

## CC(C(=O)N1CCCCC1CN1CCOCC1)c1cccc(C(=O)c2ccccc2)c1 (stereo not drawn) [Example 1B, 1-[α-(3-Benzoylphenyl)propionyl]-2-(4-morpholinylmethyl)piperidine hydrochloride]
[2]
  inhibition in vivo at 80 µmol/kg: 0%
[3]; .08 millimoles/kg, oral, rats
  inhibition in vivo at 80 µmol/kg: 9%
[3]; .324 millimoles/kg, oral, rats
  inhibition in vivo at 324 µmol/kg: 67%

## CC(c1cccc(C(=O)c2ccccc2)c1)N1CCCCC1CN1CCOCC1.Cl.Cl (stereo not drawn) [Example 4B, 1-[1-(3-Benzoylphenyl)ethyl]-2-(4-morpholinylmethyl)piperidine dihydrochloride]
[3]; .08 millimoles/kg, oral, rats
  inhibition in vivo at 80 µmol/kg: 16%
[3]; .324 millimoles/kg, oral, rats
  inhibition in vivo at 324 µmol/kg: 48%
[6]; animals affected at 15 min.
  convulsions: 2/8

## CC(C(=O)N1CCC(CN2CCOCC2)CC1)c1cccc(C(=O)c2ccccc2)c1 (stereo not drawn) [Example 1C, 1-[α-(3-Benzoylphenyl)propionyl]-4-(4-morpholinylmethyl)piperidine hydrochloride]
[2]
  inhibition in vivo at 80 µmol/kg: 30%
[3]; .08 millimoles/kg, oral, rats
  inhibition in vivo at 80 µmol/kg: 18%
[3]; .324 millimoles/kg, oral, rats
  inhibition in vivo at 324 µmol/kg: 61%

## CC(=O)NC1CCN(CC(C)c2ccc(C(=O)c3ccccc3)cc2)CC1.Cl.O (stereo not drawn) [Example 3C, 1-[2-(4-Benzoylphenyl)propyl]-4-acetylaminopiperidine hydrochloride monohydrate]
[1]; po
  ED50: 5.6 mg/kg
[4]
  PCA activity (qualitative statement): Inac.
[9]
  ED40: ~5 mg/kg
[10]
  EC50: > 10 µM
[2]
  inhibition in vivo at 80 µmol/kg: 19%
[3]; .08 millimoles/kg, oral, rats
  inhibition in vivo at 80 µmol/kg: 41%
[3]; .324 millimoles/kg, oral, rats
  inhibition in vivo at 324 µmol/kg: 53%
[5]
  ED50: 46 mg/kg

## CC(CN1CCC(N2CCCCC2)CC1)c1cccc(C(=O)c2ccccc2)c1.Cl.Cl (stereo not drawn) [Example 3B, 1-[2-(3-Benzoylphenyl)propyl]-4-(1-piperidinyl)piperidine dihydrochloride]
[1]; po
  ED50: 7.4 mg/kg
[3]; .08 millimoles/kg, oral, rats
  inhibition in vivo at 80 µmol/kg: 67%
[3]; .324 millimoles/kg, oral, rats
  inhibition in vivo at 324 µmol/kg: 74%
[6]; animals affected
  ataxic: 1/8
  hypothermia: 8/8
[6]
  dead: 1/8

## CCC(=O)NC1CCN(CC(C)c2ccc(C(=O)c3ccccc3)cc2)CC1 (stereo not drawn) [Example 6E, 1-[2-(4-Benzoylphenyl)propyl]-4-propionylaminopiperidine]
[9]
  ED40: 30 mg/kg

## CC(c1cccc(C(=O)c2ccccc2)c1)N1CCCC(CN2CCOCC2)C1 (stereo not drawn) [Example 4C, 1-[1-(3-Benzoylphenyl)ethyl]-3-(4-morpholinylmethyl)piperidine dihydrochloride monohydrate]
[3]; .08 millimoles/kg, oral, rats
  inhibition in vivo at 80 µmol/kg: 0%
[3]; .324 millimoles/kg, oral, rats
  inhibition in vivo at 324 µmol/kg: 55%

## CC(CN1CCC(CN2CCCCC2)CC1)c1cccc(C(=O)c2ccccc2)c1 (stereo not drawn) [Example 2, 1-[2-(3-benzoylphenyl)propyl]-4-(1-piperidinylmethyl)piperidine dihydrochloride]
[1]; po
  ED50: 22 mg/kg
[1]; sc
  ED50: 11 mg/kg
[2]; .02 millimoles/kg
  inhibition in vivo at 20 µmol/kg: 59%
[2]
  inhibition in vivo at 40 µmol/kg: 67%
  inhibition in vivo at 80 µmol/kg: 95%
  inhibition in vivo at 324 µmol/kg: 9%
[3]; .08 millimoles/kg, oral, rats
  inhibition in vivo at 80 µmol/kg: 47%
[3]; .324 millimoles/kg, oral, rats
  inhibition in vivo at 324 µmol/kg: 64%
[5]
  ED50: 24 mg/kg

## CC(C(=O)N1CCCC(CN2CCCCC2)C1)c1cccc(C(=O)c2ccccc2)c1 (stereo not drawn) [Example 1F, 1-[α-(3-Benzoylphenyl)propionyl]-3-(1-piperidinylmethyl)piperidine hydrochloride]
[4]
  PCA activity (qualitative statement): Actv.
[3]; .08 millimoles/kg, oral, rats
  inhibition in vivo at 80 µmol/kg: 20%
[6]
  Toxic (result in words): Toxic
  dead: 5/8

## CC(CN1CCC(N2CCCCC2)CC1)c1ccc(C(=O)c2ccccc2)cc1 (stereo not drawn) [Example 3D, 1-[2-(4-Benzoylphenyl)propyl]-4-(1-piperdinyl)piperidine dihydrochloride]
[1]; po
  ED50: 29 mg/kg
[4]
  PCA activity (qualitative statement): Inac.
[9]
  AED40 (Approximate Effective Dose resulting in 40% inhibition of bronchoconstriction): Inac.
[10]
  EC50: 90 µM
[2]
  inhibition in vivo at 80 µmol/kg: 86%
[3]; .08 millimoles/kg, oral, rats
  inhibition in vivo at 80 µmol/kg: 42%
[3]; .324 millimoles/kg, oral, rats
  inhibition in vivo at 324 µmol/kg: 46%

## CC(c1cccc(C(=O)c2ccccc2)c1)N1CCCCC1CN1CCCCC1 (stereo not drawn) [Example 4D, 1-[1-(3-Benzoylphenyl)ethyl]-2-(1-piperidinylmethyl)piperidine dihydrochloride monohydrate]
[2]
  inhibition in vivo at 324 µmol/kg: 56%
[3]; .08 millimoles/kg, oral, rats
  inhibition in vivo at 80 µmol/kg: 27%
[3]; .324 millimoles/kg, oral, rats
  inhibition in vivo at 324 µmol/kg: 59%

## CCCC(=O)NC1CCN(CC(C)c2ccc(C(=O)c3ccccc3)cc2)CC1 (stereo not drawn) [Example 6B, 1-[2-(4-Benzoylphenyl)propyl]-4-butyrylaminopiperidine]
[1]; po
  ED50: 16 mg/kg
[4]
  PCA activity (qualitative statement): Inac.
[9]
  ED40: 2 mg/kg
[10]
  EC50: > 100 µM
[2]
  inhibition in vivo at 40 µmol/kg: 38%
[3]; .08 millimoles/kg, oral, rats
  inhibition in vivo at 80 µmol/kg: 54%
[3]; .324 millimoles/kg, oral, rats
  inhibition in vivo at 324 µmol/kg: 63%
